Data reported in patent US20250186369A1, “COMPOUNDS, COMPOSITIONS, AND METHODS FOR TREATING, AMELIORATING, AND/OR PRVENTING COCAINE USE DISORDER” (Drexel University, priority 2022, published 2025).

Tests used:
[1] = target: T1, D2 receptor (Homo sapiens, UniProt P14416); test: ERK1/2 MAPK activation assay (phosphorylation immunoblot), D2 receptor; type: cell-based; conditions: 1 μM, 2 min, CHO-D2R (or HEK-D2R) cells
T1 construct: expressed in transfected cells; host or cells: CHO-D2R (or HEK-D2R) cells
Protocol: (§1) Selected compounds of the disclosure, as well as dopamine (DA) and PD128907 [a commercially available dopamine D2/D3 agonist; (4aR,10bR)-3,4a,4,10b-tetrahydro-4-propyl-2H,5H-[1]benzopyrano-[4,3-b]-1,4-oxazin-9-ol], were tested in an established ERK1/2 MAPK activation assay for dopamine D2 or D3 agonist activity. The results of these side-by-side tests, comprising immunoblot analysis of phosphorylated ERKT/2 MAPK, are illustrated in FIGS. 9-10.
(§2) Functional screening was conducted with vehicle or test compounds using ERK1/2 phosphorylation as endpoint as described herein. 0.4×10^6 CHO-D3R (or HEK-D3R) and CHO-D2R (or HEK-D2R) cells were seeded in 6-well plates and cultured in 3 ml DMEM complete growth medium for 48 h. […]
(§3) Cell lysates were assayed or protein content with DC Protein Assay Kit II (Bio-Rad). […] Total p44/42 MAPK levels in the same blots were also determined with rabbit anti-p44/42 MAPK monoclonal or polyclonal antibody (1:5000, Cell Signaling Technology) after stripping the blots of the same PVDF membrance. Chemiluminescence detection was performed using the SuperSignal West Dura Extended Duration Substrate detection kit (Thermo Scientific, Rockford, IL) and phosphorylated or total ERK1/2 MAPK immunoblots were quantified by densitometry with ImageQuant LAS4000 (GE Healthcare Bio-Sciences, Pittsburgh, PA). […]

[2] = target: T2, D3 receptor (Homo sapiens, UniProt P35462); test: ERK1/2 MAPK activation assay (phosphorylation immunoblot), D3 receptor; type: cell-based; conditions: 1 μM, 2 min, CHO-D3R (or HEK-D3R) cells
T2 construct: expressed in transfected cells; host or cells: CHO-D3R (or HEK-D3R) cells
Protocol: as §1, §2, §3

[3] = system: dopamine transporter (DAT); test: Fast scan cyclic voltammetry of dopamine release and uptake in nucleus accumbens core tissue after i.p. dosing; type: in vivo, rats; conditions: for dopamine release at baseline: FIG. 8B; for dopamine release at baseline / dopamine uptake at baseline: naive rats, i.p. 30 min prior to sacrifice, PRX 0.25 mg/kg, SK608 4 mg/kg, SK609 4 mg/kg, vs saline; for dopamine uptake at baseline: FIG. 8C; for dopamine release after bath-applied cocaine: FIG. 8D; for dopamine release after bath-applied cocaine / inhibition of dopamine uptake by cocaine: same dosing, cocaine bath applied to tissue; for inhibition of dopamine uptake by cocaine: FIG. 8E
Protocol: (§4) (FIG. 3A) DA release, (FIG. 3B) DA uptake (Vmax), and (FIG. 3C) DAT sensitivity to cocaine (inhibition of DA uptake; app Km) following vehicle (Veh) or 4 mg/kg SK609.
(§5) Naive rats were injected intraperitoneally with saline (SAL), pramipexole (PRX; 0.25 mg/kg), SK608 (608; 4 mg/kg), or SK609 (609; 4 mg/kg) 30 min prior to sacrifice. […] (FIG. 8A) Example dopamine traces, (FIG. 8B) dopamine release and (FIG. 8C) dopamine uptake at baseline, (FIG. 8D) dopamine release and (FIG. 8E) inhibition of dopamine uptake. Data are mean±s.e.m.
as §4
as §5, with “mean s.e.m.” for “mean±s.e.m.”

[4] = system: pDAT; test: Time course densitometry of pDAT levels in SH-SY5Y-D3R cells; type: cell-based; conditions: PRX 5 nM, SK608 1 μM, SK609 1 μM; for pDAT levels, combined with / post cocaine (CC): FIG. 5B, cocaine 1 μM
Protocol: FIGS. 5A-5B illustrate that SK609 and its analogues reduce pDAT levels when pretreated with cocaine in a time dependent manner. Time course densitometry analysis of the effects of cocaine (1 μM), PRX (5 nM), SK608 (1 μM), and SK609 (1 μM) on pDAT levels in SH-SY5Y-D3R cells. Different groups of cells were pre-treated with (FIG. 5A) CC, PRX, SK609 and SK608 or (FIG. 5B) CC, CC/PRX, CC/SK609 and CC/SK608 and were collected at the time points indicated. pDAT levels were measured and GAPDH was used as loading control. Data are presented as mean±sd from three independent experiments performed in triplicate.

[5] = Self-administration of PRX or SK609 on fixed ratio 1 schedule before and after cocaine (FIG. 7)
Protocol: FIG. 7A: Rats were implanted with jugular catheters and then allowed to self-administer either pramipexole (PRX; 0.25 mg/kg) or SK609 (609; 4 mg/kg) on a 6-hr, fixed ratio 1 schedule of reinforcement (Pre-Cocaine; left gray shading). After 10 days of PRX or SK609 access, rats were switched to cocaine (0.75 mg/kg). Once rats acquired cocaine self-administration behavior (defined as 20 injections of cocaine within a single 6-session) they were allowed another two days of cocaine access (Cocaine; blue shading). Only the last 3 days of cocaine self-administration are plotted. After cocaine self-administration, rats were switched back to PRX and SK609 to assess if these compounds would now maintain reinforced responding (Post-Cocaine; right gray shading). […] Data are mean±s.e.m. Student's t-test. *p<0.05.
After 10 days of PRX or SK609 access, rats were switched to cocaine (0.75 mg/kg). Once rats acquired cocaine self-administration behavior (defined as 20 injections of cocaine within a single 6-session) they were allowed another two days of cocaine access (Cocaine; blue shading). Only the last 3 days of cocaine self-administration are plotted. After cocaine self-administration, rats were switched back to PRX and SK609 to assess if these compounds would now maintain reinforced responding (Post-Cocaine; right gray shading).
Data are mean±s.e.m. Student's t-test. *p<0.05.

[6] = in vivo; cited from earlier work
[7] = SK609 self-administration in rats (FIG. 1); type: in vivo; conditions: rats given access to 4 mg/kg SK609; comparison 0.75 mg/kg cocaine
Protocol: (§6) Shown are injections taken for rats given access to 4 mg/kg SK609 and 0.75 mg/kg cocaine. Dashed line represents acquisition criteria which required 4 consecutive days of 10 injections per session. Cocaine data are aligned to the first day in which rats met acquisition criteria. Data represent mean±s.e.m. *p<0.05, ***p<0.001.
as §6, with “Shown in FIG. 1” for “Shown”, “mean s.e.m.” for “mean±s.e.m.”

[8] = Cocaine self-administration on Progressive Ratio (PR) schedule, motivation for cocaine; type: in vivo, rodent; conditions: i.p. 2 mg/kg or 4 mg/kg SK609
Protocol: FIGS. 2A-2B illustrate that SK609 reduces motivation for cocaine in a rodent self-administration model. […] (FIG. 2A) Breakpoints and (FIG. 2B) lever presses following i.p. vehicle, 2 mg/kg or 4 mg/kg SK609. Data are expressed as the mean±s.e.m., percent of baseline responding. *P<0.05.
(FIG. 2A) Breakpoints and (FIG. 2B) lever presses following i.p. vehicle, 2 mg/kg or 4 mg/kg SK609. Data are expressed as the mean±s.e.m., percent of baseline responding. *P<0.05.

[9] = system: pDAT; test: Western blot / densitometry of pDAT in striatal synaptosomes of cocaine-treated rats; type: in vivo; conditions: cocaine 15 mg/kg pre-treatment, SK609 4 mg/kg
Protocol: (FIG. 4A) Representative western blots for pDAT, tDAT, D3R, βarr2 and GAPDH on striatal synaptosomes derived from rats treated with either saline (sal) or cocaine (CC) (15 mg/kg) or SK609 (4 mg/kg) or Pramipexole (PRX; (S)-N^6-propyl-4,5,6,7-tetrahydro-1,3-benzothiazole-2,6-diamine) (0.25 mg/kg) with and without cocaine pre-treatment. […] (FIG. 4B) Densitometry analysis of pDAT expression. Data are presented as mean s.e.m. from 3 independent experiments from n=3 rats/group. *p<0.05, **p<0.001.
(FIG. 4A) Representative western blots for pDAT, tDAT, D3βarr2 and GAPDH on striatal synaptosomes derived from rats treated with either saline (sal) or cocaine (CC) (15 mg/kg) or SK609 (4 mg/kg) or Pramipexole (PRX) (0.25 mg/kg) with and without cocaine pre-treatment. (FIG. 4B) Densitometry analysis of pDAT expression. Data are presented as mean±s.e.m. from 3 independent experiments from n=3 rats/group. *p<0.05, **p<0.001.

T2 sequence (P35462 whole entry): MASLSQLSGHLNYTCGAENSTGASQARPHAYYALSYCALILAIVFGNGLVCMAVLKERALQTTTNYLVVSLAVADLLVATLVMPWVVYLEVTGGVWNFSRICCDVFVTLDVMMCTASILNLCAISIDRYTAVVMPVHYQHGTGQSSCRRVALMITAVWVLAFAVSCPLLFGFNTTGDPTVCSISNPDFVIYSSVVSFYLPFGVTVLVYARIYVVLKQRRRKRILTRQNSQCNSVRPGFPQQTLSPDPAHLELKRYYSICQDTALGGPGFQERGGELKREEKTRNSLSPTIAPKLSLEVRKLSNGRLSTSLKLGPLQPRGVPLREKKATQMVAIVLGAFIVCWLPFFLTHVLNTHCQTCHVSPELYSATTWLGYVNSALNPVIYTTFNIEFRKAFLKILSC
T1 sequence (P14416 whole entry): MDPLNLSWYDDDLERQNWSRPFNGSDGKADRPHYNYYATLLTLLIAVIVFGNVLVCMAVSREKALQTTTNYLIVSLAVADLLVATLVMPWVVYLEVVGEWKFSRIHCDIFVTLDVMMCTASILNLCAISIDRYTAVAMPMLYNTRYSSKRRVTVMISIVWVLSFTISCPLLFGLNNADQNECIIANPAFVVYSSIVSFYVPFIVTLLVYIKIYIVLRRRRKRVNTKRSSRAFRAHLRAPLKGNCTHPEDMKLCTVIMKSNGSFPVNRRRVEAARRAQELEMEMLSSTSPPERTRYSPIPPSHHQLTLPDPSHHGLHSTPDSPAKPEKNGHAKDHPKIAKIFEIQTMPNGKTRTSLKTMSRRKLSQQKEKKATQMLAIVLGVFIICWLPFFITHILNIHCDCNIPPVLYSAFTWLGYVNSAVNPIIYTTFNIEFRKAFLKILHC

CCCN1CCO[C@@H]2c3cc(O)ccc3OC[C@H]21 [PD128609, (4aR,10bR)-3,4a,4,10b-tetrahydro-4-propyl-2H,5H-[1]benzopyrano-[4,3-b]-1,4-oxazin-9-ol]
ERK1/2 phosphorylation induced by activation of D2 receptor [1]: activated both D2 and D3 receptors | ERK1/2 phosphorylation induced by activation of D3 receptor [2]: activated both D2 and D3 receptors

CCCN[C@H]1CCc2nc(N)sc2C1 [PRX, (S)-N^6-propyl-4,5,6,7-tetrahydro-1,3-benzothiazole-2,6-diamine, reference compound]
dopamine release at baseline [3]: no effect on DA release or uptake | dopamine uptake at baseline [3]: no effect on DA release or uptake | dopamine release after bath-applied cocaine [3]: had no effect | inhibition of dopamine uptake by cocaine [3]: had no effect | pDAT levels, compound on its own ([4]; FIG. 5A): significant increase in pDAT levels | pDAT levels, combined with / post cocaine (CC) [4]: significant increase in pDAT levels | overall intake, post-cocaine ([5]; rat, in vivo): sustained higher overall PRX intake compared to SK609 | cumulative intake, pre-cocaine ([5]; rat, in vivo, 10 days): higher cumulative intake of PRX compared to SK609 | compulsive drug seeking behavior [6]: producing compulsive drug seeking behavior

CC(N)CCc1ccc(Cl)cc1 (stereo not drawn) [SK608, 4-(4-chlorophenyl)-butan-2-amine]
dopamine release at baseline [3]: reduce DA release and uptake | dopamine uptake at baseline [3]: reduce DA release and uptake | dopamine release after bath-applied cocaine [3]: significantly reduced DA release and uptake inhibition by cocaine | inhibition of dopamine uptake by cocaine [3]: significantly reduced DA release and uptake inhibition by cocaine | pDAT levels, combined with / post cocaine (CC) [4]: significantly reduced pDAT levels

CC(N)CCc1ccccc1Cl (stereo not drawn) [SK609, 4-(2-chlorophenyl)-butan-2-amine]
self-administration (injections taken) [7]: does not support self-administration | motivation for cocaine (breakpoints, lever presses) [8]: reduced motivation for cocaine | DA release ([3]; FIG. 3A, 4 mg/kg SK609 vs vehicle): disrupts dopamine (DA) release and uptake | DA uptake (Vmax) ([3]; FIG. 3B, 4 mg/kg SK609 vs vehicle): disrupts dopamine (DA) release and uptake | dopamine release at baseline [3]: reduce DA release and uptake | dopamine uptake at baseline [3]: reduce DA release and uptake | dopamine release after bath-applied cocaine [3]: significantly reduced DA release and uptake inhibition by cocaine | inhibition of dopamine uptake by cocaine [3]: significantly reduced DA release and uptake inhibition by cocaine | pDAT expression in striatal synaptosomes [9]: reduces expression of pDAT | pDAT levels, combined with / post cocaine (CC) [4]: significantly reduced pDAT levels | acquisition of self-administration of the compound (reinforcing effect) ([5]; FIG. 7A, 6-hr fixed ratio 1, PRX 0.25 mg/kg, SK609 4 mg/kg): not robust reinforcers
